Measurements: US8192962B2, “Processes for detecting toxic substances” (Daikin Industries, Ltd., priority 2001, dated 2012)

System: Unknown protein yeast genes
Experiment: DNA chip mRNA expression in yeast, unknown protein yeast genes (Table 1)
Assay type: cell-based, Saccharomyces cerevisiae S288C
How it was run: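 Whole-genome yeast DNA chip hybridization (65° C., >12 h) of Cy-labeled cDNA from S288C cells exposed 2 h at 25° C. to a sub-lethal toxicant dose in YPD; value is intensity relative to chemical-free control.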

SMILES: CCCCCCCCCCCCOS(=O)(=O)[O-].[Na+] [(18), sodium lauryl sulfate]
- The level of expressed mRNA in the presence of chemical substance/The level of expressed mRNA in the absence of chemical substance (yeast gene YAL053W, incubated two hours with chemical substance): 1.6
- The level of expressed mRNA in the presence of chemical substance/The level of expressed mRNA in the absence of chemical substance (yeast gene YBL048W): 1.0
- The level of expressed mRNA in the presence of chemical substance/The level of expressed mRNA in the absence of chemical substance (yeast gene YBL107C): 1.4
- The level of expressed mRNA in the presence of chemical substance/The level of expressed mRNA in the absence of chemical substance (yeast gene YDL072C, incubated two hours with chemical substance): 2.8
- The level of expressed mRNA in the presence of chemical substance/The level of expressed mRNA in the absence of chemical substance (yeast gene YDL110C): 4.4
- The level of expressed mRNA in the presence of chemical substance/The level of expressed mRNA in the absence of chemical substance (yeast gene YDL204W, incubated two hours with chemical substance): 2.7
- The level of expressed mRNA in the presence of chemical substance/The level of expressed mRNA in the absence of chemical substance (yeast gene YDL222C, incubated two hours with chemical substance): 1.3
- The level of expressed mRNA in the presence of chemical substance/The level of expressed mRNA in the absence of chemical substance (yeast gene YDR330W, incubated two hours with chemical substance): 1.3
- The level of expressed mRNA in the presence of chemical substance/The level of expressed mRNA in the absence of chemical substance (yeast gene YDR391C, incubated two hours with chemical substance): 2.4
- The level of expressed mRNA in the presence of chemical substance/The level of expressed mRNA in the absence of chemical substance (yeast gene YDR411C, incubated two hours with chemical substance): 1.3
- The level of expressed mRNA in the presence of chemical substance/The level of expressed mRNA in the absence of chemical substance (yeast gene YDR511W, incubated two hours with chemical substance): 1.5
- The level of expressed mRNA in the presence of chemical substance/The level of expressed mRNA in the absence of chemical substance (yeast gene YDR533C): 2.7
- The level of expressed mRNA in the presence of chemical substance/The level of expressed mRNA in the absence of chemical substance (yeast gene YDR545W, incubated two hours with chemical substance): 0.9
- The level of expressed mRNA in the presence of chemical substance/The level of expressed mRNA in the absence of chemical substance (yeast gene YEL001C, incubated two hours with chemical substance): 1.3
- The level of expressed mRNA in the presence of chemical substance/The level of expressed mRNA in the absence of chemical substance (yeast gene YER004W, incubated two hours with chemical substance): 1.2
- The level of expressed mRNA in the presence of chemical substance/The level of expressed mRNA in the absence of chemical substance (yeast gene YER035W, incubated two hours with chemical substance): 2.1
- The level of expressed mRNA in the presence of chemical substance/The level of expressed mRNA in the absence of chemical substance (yeast gene YER079W, incubated two hours with chemical substance): 1.6
- The level of expressed mRNA in the presence of chemical substance/The level of expressed mRNA in the absence of chemical substance (yeast gene YER106W, incubated two hours with chemical substance): 0.8
- The level of expressed mRNA in the presence of chemical substance/The level of expressed mRNA in the absence of chemical substance (yeast gene YER158C, incubated two hours with chemical substance): 1.2
- The level of expressed mRNA in the presence of chemical substance/The level of expressed mRNA in the absence of chemical substance (yeast gene YER163C, incubated two hours with chemical substance): 1.2
- The level of expressed mRNA in the presence of chemical substance/The level of expressed mRNA in the absence of chemical substance (yeast gene YER175C, incubated two hours with chemical substance): 1.2
- The level of expressed mRNA in the presence of chemical substance/The level of expressed mRNA in the absence of chemical substance (yeast gene YFL006W, incubated two hours with chemical substance): 0.8
- The level of expressed mRNA in the presence of chemical substance/The level of expressed mRNA in the absence of chemical substance (yeast gene YFL010C, incubated two hours with chemical substance): 1.6
- The level of expressed mRNA in the presence of chemical substance/The level of expressed mRNA in the absence of chemical substance (yeast gene YFL024C): 0.8
- The level of expressed mRNA in the presence of chemical substance/The level of expressed mRNA in the absence of chemical substance (yeast gene YFL032W, incubated two hours with chemical substance): 0.8
- The level of expressed mRNA in the presence of chemical substance/The level of expressed mRNA in the absence of chemical substance (yeast gene YGL037C, incubated two hours with chemical substance): 2.6
- The level of expressed mRNA in the presence of chemical substance/The level of expressed mRNA in the absence of chemical substance (yeast gene YGL047W, incubated two hours with chemical substance): 1.2
- The level of expressed mRNA in the presence of chemical substance/The level of expressed mRNA in the absence of chemical substance (yeast gene YGL053W, incubated two hours with chemical substance): 3.7
- The level of expressed mRNA in the presence of chemical substance/The level of expressed mRNA in the absence of chemical substance (yeast gene YGL121C): 3.5
- The level of expressed mRNA in the presence of chemical substance/The level of expressed mRNA in the absence of chemical substance (yeast gene YGL199C, incubated two hours with chemical substance): 1.0
- The level of expressed mRNA in the presence of chemical substance/The level of expressed mRNA in the absence of chemical substance (yeast gene YGR101W, incubated two hours with chemical substance): 1.1
- The level of expressed mRNA in the presence of chemical substance/The level of expressed mRNA in the absence of chemical substance (yeast gene YGR110W): 2.1
- The level of expressed mRNA in the presence of chemical substance/The level of expressed mRNA in the absence of chemical substance (yeast gene YGR130C, incubated two hours with chemical substance): 1.6
- The level of expressed mRNA in the presence of chemical substance/The level of expressed mRNA in the absence of chemical substance (yeast gene YGR154C, incubated two hours with chemical substance): 1.2
- The level of expressed mRNA in the presence of chemical substance/The level of expressed mRNA in the absence of chemical substance (yeast gene YGR221C, incubated two hours with chemical substance): 1.3
- The level of expressed mRNA in the presence of chemical substance/The level of expressed mRNA in the absence of chemical substance (yeast gene YGR243W): 4.4
- The level of expressed mRNA in the presence of chemical substance/The level of expressed mRNA in the absence of chemical substance (yeast gene YHR054C): 3.4
- The level of expressed mRNA in the presence of chemical substance/The level of expressed mRNA in the absence of chemical substance (yeast gene YHR138C, incubated two hours with chemical substance): 7.1
- The level of expressed mRNA in the presence of chemical substance/The level of expressed mRNA in the absence of chemical substance (yeast gene YHR199C, incubated two hours with chemical substance): 0.9
- The level of expressed mRNA in the presence of chemical substance/The level of expressed mRNA in the absence of chemical substance (yeast gene YHR209W): 2.6
- The level of expressed mRNA in the presence of chemical substance/The level of expressed mRNA in the absence of chemical substance (yeast gene YIL023C, incubated two hours with chemical substance): 1.0
- The level of expressed mRNA in the presence of chemical substance/The level of expressed mRNA in the absence of chemical substance (yeast gene YIL041W, incubated two hours with chemical substance): 1.1
- The level of expressed mRNA in the presence of chemical substance/The level of expressed mRNA in the absence of chemical substance (yeast gene YIL087C, incubated two hours with chemical substance): 1.6
- The level of expressed mRNA in the presence of chemical substance/The level of expressed mRNA in the absence of chemical substance (yeast gene YJL057C, incubated two hours with chemical substance): 1.5
- The level of expressed mRNA in the presence of chemical substance/The level of expressed mRNA in the absence of chemical substance (yeast gene YJL066C, incubated two hours with chemical substance): 1.5
- The level of expressed mRNA in the presence of chemical substance/The level of expressed mRNA in the absence of chemical substance (yeast gene YJL082W, incubated two hours with chemical substance): 0.3
- The level of expressed mRNA in the presence of chemical substance/The level of expressed mRNA in the absence of chemical substance (yeast gene YJL151C, incubated two hours with chemical substance): 2.4
- The level of expressed mRNA in the presence of chemical substance/The level of expressed mRNA in the absence of chemical substance (yeast gene YJL152W, incubated two hours with chemical substance): 1.7
- The level of expressed mRNA in the presence of chemical substance/The level of expressed mRNA in the absence of chemical substance (yeast gene YJL161W, incubated two hours with chemical substance): 2.1
- The level of expressed mRNA in the presence of chemical substance/The level of expressed mRNA in the absence of chemical substance (yeast gene YJL171C, incubated two hours with chemical substance): 2.9
- The level of expressed mRNA in the presence of chemical substance/The level of expressed mRNA in the absence of chemical substance (yeast gene YJR008W, incubated two hours with chemical substance): 2.7
- The level of expressed mRNA in the presence of chemical substance/The level of expressed mRNA in the absence of chemical substance (yeast gene YJR054W, incubated two hours with chemical substance): 0.9
- The level of expressed mRNA in the presence of chemical substance/The level of expressed mRNA in the absence of chemical substance (yeast gene YKL071W): 0.9
- The level of expressed mRNA in the presence of chemical substance/The level of expressed mRNA in the absence of chemical substance (yeast gene YKL086W, incubated two hours with chemical substance): 1.0
